Measured values: ChEMBL document CHEMBL1201862, “PubChem BioAssay data set” (2004)
The source made the active and inactive calls.

How the values were obtained:
[1] = target: Voltage-dependent T-type calcium channel subunit alpha-1H (Homo sapiens, UniProt O95180); type: functional;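 note: channel activity triggered by adding a high calcium stimulation buffer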
Cytochrome P450 3A4 [2] = target: T1, Cytochrome P450 3A4 (Homo sapiens, UniProt P08684); settings: Potency
Beta-galactosidase = Beta-galactosidase (Escherichia coli, UniProt Q8VNN2); experiment: detection-enzyme interference by beta-gal modulators – biochemical, E. coli enzyme, set 3, artefact control for CCR6 antagonist project, dose response (AID 504712); type: functional
[3] = target: T2, Heat shock factor protein 1 (Mus musculus, UniProt P38532); experiment: enhancement of HSF1-driven luciferase signal – cell-based, NIH3T3, luminescence, dose retest, confirmation (AID 435004); type: functional;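 note: stress induced by proteasome inhibitor MG132 added 30 min after compound; luciferase reporter driven by HSF1 response element in NIH3T3 cells; actives raise luminescence as potentiators of the MG132 stress response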
T2 sequence (P38532 whole entry): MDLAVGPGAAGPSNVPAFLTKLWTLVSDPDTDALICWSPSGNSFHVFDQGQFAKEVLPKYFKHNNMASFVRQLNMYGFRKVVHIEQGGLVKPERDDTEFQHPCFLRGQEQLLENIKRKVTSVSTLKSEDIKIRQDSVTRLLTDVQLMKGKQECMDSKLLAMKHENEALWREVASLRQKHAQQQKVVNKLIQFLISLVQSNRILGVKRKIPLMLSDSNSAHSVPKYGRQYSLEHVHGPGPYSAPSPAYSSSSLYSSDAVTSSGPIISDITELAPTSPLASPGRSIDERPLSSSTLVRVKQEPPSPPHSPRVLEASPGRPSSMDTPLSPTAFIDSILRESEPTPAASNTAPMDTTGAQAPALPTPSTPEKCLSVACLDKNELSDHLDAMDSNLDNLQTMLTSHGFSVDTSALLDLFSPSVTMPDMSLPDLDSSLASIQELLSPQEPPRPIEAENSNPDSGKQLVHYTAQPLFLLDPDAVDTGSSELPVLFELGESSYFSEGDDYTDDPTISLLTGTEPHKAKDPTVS

Ion channel NompC = Ion channel NompC (Danio rerio, UniProt Q7T1G6); experiment: Fluorescence counterscreen assay for TRPML3 agonists: dose response cell-based high-throughput screening assay to identify agonists of the transient receptor potential channel N1 (TRPN1). [Related pubchem assays: 1526, 1424, 1448 ]; type: functional
Mucolipin-3 = target: T3, Mucolipin-3 (Homo sapiens, UniProt Q8TDD5); experiment: Dose response cell-based high-throughput screening assay for agonists of the transient receptor potential channel ML3 (TRPML3). [Related pubchem assays: 1526, 1424, 1448 ]; type: functional
T3 sequence (Q8TDD5 whole entry): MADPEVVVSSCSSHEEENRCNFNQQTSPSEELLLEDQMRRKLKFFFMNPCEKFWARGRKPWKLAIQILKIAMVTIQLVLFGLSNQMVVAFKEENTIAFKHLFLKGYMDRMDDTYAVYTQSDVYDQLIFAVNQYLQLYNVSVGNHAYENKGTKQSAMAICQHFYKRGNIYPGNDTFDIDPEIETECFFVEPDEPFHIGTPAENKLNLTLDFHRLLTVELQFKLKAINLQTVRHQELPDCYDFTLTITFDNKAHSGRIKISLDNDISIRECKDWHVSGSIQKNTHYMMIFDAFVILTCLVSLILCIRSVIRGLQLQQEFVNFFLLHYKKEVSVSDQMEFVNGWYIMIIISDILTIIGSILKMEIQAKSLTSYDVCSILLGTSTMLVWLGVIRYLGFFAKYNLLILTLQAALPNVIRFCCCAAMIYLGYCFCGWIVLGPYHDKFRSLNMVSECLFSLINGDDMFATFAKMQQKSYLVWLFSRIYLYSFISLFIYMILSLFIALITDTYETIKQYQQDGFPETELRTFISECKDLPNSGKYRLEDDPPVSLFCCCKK

[4] = target: Neurotensin receptor type 1 (Homo sapiens, UniProt P30989); type: functional;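 note: Image-based confirmatory dose-response assay measuring agonist activity at NTR1; NTR1-expressing U2OS osteosarcoma cells imaged for beta-arrestin GFP spot formation; agonist potency where compounds increase beta-arrestin recruitment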
[5] = HepG2 cell cytotoxicity, dose response, cytotoxicity control for non-replicating M. tuberculosis project (AID 489018); type: functional; settings: Mycobacterium tuberculosis
[6] = target: T4, High affinity choline transporter 1 (Homo sapiens, UniProt Q9GZV3); experiment: human choline transporter blockers, potency – cell-based, 5-point CRC, membrane potential dye, dose response (AID 504840); type: functional
T4 sequence (Q9GZV3 whole entry): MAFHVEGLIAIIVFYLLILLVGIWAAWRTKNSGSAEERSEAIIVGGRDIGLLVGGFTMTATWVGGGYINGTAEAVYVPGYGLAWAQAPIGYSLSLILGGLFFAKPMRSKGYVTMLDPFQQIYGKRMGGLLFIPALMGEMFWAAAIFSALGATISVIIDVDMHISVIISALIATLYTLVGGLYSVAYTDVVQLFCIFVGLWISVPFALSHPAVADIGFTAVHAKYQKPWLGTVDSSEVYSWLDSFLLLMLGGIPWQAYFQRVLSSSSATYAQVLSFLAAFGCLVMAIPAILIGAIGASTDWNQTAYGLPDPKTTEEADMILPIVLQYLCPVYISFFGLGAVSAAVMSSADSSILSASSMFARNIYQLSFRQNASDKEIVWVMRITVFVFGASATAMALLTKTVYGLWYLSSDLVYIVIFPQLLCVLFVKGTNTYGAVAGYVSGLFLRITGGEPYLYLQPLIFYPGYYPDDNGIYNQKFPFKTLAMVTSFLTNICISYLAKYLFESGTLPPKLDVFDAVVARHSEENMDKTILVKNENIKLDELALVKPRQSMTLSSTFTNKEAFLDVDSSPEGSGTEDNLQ

[7] = THP-1 cell cytotoxicity, dose response, cytotoxicity control for non-replicating M. tuberculosis project (AID 489025); type: functional
[8] = Trypanosoma cruzi growth suppression in host cells – NIH3T3 host cells, beta-gal luminescence, confirmation (AID 2044); type: functional, cell-based;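 note: intracellular parasites grown in NIH/3T3 mouse fibroblasts as host cells; luminescent beta-galactosidase reporter signal from transgenic T. cruzi replicating inside host cells; inhibitors lower the luminescence signal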
[9] = NIH3T3 cell viability loss – ATP luminescence, mouse fibroblasts, counter-screen, dose response (AID 2010); type: functional, cell-based;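 note: cells exposed to compound for about 90 hours before reading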
Streptococcus = experiment: GAS UMAA2166 growth inhibition – luminescence, BacTiterGlo, counter-screen for streptokinase expression inhibitor project, dose response (AID 1915); type: functional, organism-based;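 note: potency for reduction of bacterial viability or growth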
cells [10] = type: functional
[11] = tested on: Streptococcus sp. 'group A'; experiment: Streptococcus pyogenes SK(-)GAS viability under kanamycin – luminescence, BacTiterGlo, confirmation, counter-screen for streptokinase expression inhibitor project, dose response (AID 1900); type: functional, organism-based
Streptokinase A = target: T5, Streptokinase A (Streptococcus pyogenes serotype M1, UniProt P10520); experiment: viability-normalized secreted streptokinase activity reduction – plasminogen activation absorbance, OD405, dose response (AID 1914); type: functional, Streptococcus pyogenes M1 GAS;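 note: secreted streptokinase activity via plasminogen activation per viability signal from cell pellet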
T5 sequence (P10520 whole entry): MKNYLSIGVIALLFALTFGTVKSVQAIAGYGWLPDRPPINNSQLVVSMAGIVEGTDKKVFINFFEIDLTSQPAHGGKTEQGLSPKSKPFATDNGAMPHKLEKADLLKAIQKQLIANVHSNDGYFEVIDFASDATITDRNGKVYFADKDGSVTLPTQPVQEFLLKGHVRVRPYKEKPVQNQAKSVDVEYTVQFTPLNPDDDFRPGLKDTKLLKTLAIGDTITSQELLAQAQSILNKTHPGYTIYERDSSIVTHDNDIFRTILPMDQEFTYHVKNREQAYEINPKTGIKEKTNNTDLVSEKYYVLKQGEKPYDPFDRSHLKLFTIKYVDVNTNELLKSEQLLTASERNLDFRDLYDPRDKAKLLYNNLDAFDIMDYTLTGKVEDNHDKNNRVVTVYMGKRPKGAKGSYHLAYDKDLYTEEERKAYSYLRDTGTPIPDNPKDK

[12] = Vero E6 cell cytotoxicity, dose response, cytotoxicity control for non-replicating M. tuberculosis project, secondary assay (AID 492998); type: functional, VeroE6; settings: Vero C1008
[13] = HEK-293T viability loss after treatment – luminescence, T-cell screen hits, cytotoxicity control for TCR NF-kB inhibitor project, dose response (AID 489026); type: functional, cell-based;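 note: cells exposed to compound about 14 hours before the viability readout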
[14] = target: T6, Corticotropin-releasing factor receptor 2/Corticotropin-releasing factor-binding protein (Homo sapiens, UniProt P24387+Q13324); experiment: activators of CRF receptor 2 with binding protein – uHTS hits, confirmation (AID 602473); type: functional; settings: read-out: EC50_Mean
T6 sequence (Q13324 whole entry): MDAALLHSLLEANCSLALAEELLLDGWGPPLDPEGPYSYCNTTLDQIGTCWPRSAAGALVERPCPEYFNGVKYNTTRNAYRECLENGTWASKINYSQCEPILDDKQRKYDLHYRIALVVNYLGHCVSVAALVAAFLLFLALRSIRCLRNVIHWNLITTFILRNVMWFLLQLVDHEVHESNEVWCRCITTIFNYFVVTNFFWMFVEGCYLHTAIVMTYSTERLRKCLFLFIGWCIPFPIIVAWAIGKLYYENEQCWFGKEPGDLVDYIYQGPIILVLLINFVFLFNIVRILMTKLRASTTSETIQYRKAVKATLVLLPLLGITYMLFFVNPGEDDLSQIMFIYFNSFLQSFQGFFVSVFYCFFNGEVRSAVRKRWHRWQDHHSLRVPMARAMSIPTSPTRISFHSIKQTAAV
T6 sequence (P24387 whole entry): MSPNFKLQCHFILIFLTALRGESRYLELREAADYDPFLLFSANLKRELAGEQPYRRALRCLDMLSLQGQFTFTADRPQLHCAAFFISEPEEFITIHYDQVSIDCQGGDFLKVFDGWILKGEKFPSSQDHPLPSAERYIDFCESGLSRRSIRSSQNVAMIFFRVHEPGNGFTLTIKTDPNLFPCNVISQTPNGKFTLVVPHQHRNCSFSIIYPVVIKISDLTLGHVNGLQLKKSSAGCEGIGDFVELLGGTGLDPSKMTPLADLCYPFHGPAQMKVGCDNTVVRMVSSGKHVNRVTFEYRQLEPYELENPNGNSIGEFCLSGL

cells [15] = experiment: cells
[16] = target: T6, Corticotropin-releasing factor receptor 2/Corticotropin-releasing factor-binding protein; experiment: Dose Response confirmation of uHTS hits for small molecule antagonists of the CRF-binding protein and CRF-R2 receptor complex.; type: functional; settings: read-out: IC50_Mean
[17] = fluconazole-exposed Candida albicans growth modulators – fluorescence, retest, confirmation (AID 2467); type: functional, cell-based
[18] = NIH-3T3 fibroblast cytotoxicity, dose response, cytotoxicity control, cell-based, fluorescence, Alamar Blue, secondary assay (AID 2327); type: functional;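 note: NIH-3T3 mouse fibroblasts cultured with fluconazole at 8 µg/mL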
Cytochrome P450 3A4 [19] = target: T1, Cytochrome P450 3A4
INS1 = experiment: INS-1E survival protection against cytokine death – cell-based, luminescence, retest, dose response (AID 449756); type: functional; settings: Rattus norvegicus;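 note: cell death triggered by IL-1 beta plus TNF-alpha plus IFN-gamma mixture; protective hits raise ATP signal compared with cytokine alone wells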

T1 sequence (P08684 whole entry): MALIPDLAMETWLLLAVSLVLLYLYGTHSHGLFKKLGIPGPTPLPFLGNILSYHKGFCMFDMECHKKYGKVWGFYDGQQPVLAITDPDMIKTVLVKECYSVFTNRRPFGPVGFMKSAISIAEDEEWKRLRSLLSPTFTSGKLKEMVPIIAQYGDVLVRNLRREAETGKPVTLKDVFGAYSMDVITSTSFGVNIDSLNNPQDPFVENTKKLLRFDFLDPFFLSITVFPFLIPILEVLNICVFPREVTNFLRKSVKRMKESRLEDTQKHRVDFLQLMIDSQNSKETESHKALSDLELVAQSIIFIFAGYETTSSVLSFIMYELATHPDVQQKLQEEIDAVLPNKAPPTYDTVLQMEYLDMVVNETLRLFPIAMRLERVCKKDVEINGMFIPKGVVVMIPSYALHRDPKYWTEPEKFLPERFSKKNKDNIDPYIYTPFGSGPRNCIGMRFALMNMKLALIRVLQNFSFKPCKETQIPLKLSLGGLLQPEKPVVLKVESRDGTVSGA
Ion channel NompC, sequence (Q7T1G6 whole entry): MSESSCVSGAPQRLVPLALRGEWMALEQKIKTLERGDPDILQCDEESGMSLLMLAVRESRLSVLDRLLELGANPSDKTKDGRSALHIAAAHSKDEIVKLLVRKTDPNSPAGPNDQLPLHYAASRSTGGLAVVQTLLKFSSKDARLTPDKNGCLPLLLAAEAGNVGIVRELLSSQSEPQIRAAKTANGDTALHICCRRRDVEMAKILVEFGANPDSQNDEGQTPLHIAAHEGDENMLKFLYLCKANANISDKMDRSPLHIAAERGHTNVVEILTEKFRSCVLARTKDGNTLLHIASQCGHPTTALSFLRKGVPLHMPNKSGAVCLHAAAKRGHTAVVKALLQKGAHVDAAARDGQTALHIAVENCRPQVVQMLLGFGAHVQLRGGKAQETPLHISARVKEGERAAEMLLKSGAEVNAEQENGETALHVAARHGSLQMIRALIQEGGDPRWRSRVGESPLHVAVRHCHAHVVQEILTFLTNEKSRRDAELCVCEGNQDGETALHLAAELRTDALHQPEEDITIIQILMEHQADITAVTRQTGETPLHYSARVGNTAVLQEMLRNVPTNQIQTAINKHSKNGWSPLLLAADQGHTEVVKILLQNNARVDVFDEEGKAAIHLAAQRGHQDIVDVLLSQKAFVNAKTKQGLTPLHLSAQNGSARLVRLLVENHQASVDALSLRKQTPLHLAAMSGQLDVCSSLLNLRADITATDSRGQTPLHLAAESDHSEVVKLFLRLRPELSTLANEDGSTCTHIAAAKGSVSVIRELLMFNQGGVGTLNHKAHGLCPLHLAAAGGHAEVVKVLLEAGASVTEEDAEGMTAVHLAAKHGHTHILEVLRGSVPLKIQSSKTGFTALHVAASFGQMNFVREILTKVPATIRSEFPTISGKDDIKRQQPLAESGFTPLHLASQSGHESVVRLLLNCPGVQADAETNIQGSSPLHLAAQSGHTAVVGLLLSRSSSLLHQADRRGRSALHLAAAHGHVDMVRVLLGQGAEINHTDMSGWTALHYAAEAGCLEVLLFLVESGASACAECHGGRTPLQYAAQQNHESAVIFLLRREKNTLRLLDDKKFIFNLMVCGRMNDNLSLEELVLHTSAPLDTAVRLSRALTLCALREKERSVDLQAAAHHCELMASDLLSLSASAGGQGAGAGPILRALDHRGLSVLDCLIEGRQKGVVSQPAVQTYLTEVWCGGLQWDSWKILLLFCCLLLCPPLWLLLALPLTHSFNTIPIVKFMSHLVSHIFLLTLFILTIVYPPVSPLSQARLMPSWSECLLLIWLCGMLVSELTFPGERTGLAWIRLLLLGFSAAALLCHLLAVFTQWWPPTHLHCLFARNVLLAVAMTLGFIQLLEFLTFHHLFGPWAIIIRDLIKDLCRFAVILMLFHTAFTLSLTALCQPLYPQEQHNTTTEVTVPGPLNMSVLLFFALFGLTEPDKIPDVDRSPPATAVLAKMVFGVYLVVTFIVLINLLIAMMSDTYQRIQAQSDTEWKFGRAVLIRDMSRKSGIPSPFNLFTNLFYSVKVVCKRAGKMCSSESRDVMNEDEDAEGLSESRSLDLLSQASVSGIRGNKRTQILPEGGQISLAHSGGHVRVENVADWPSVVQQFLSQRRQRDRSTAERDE
Voltage-dependent T-type calcium channel subunit alpha-1H, sequence (O95180 whole entry): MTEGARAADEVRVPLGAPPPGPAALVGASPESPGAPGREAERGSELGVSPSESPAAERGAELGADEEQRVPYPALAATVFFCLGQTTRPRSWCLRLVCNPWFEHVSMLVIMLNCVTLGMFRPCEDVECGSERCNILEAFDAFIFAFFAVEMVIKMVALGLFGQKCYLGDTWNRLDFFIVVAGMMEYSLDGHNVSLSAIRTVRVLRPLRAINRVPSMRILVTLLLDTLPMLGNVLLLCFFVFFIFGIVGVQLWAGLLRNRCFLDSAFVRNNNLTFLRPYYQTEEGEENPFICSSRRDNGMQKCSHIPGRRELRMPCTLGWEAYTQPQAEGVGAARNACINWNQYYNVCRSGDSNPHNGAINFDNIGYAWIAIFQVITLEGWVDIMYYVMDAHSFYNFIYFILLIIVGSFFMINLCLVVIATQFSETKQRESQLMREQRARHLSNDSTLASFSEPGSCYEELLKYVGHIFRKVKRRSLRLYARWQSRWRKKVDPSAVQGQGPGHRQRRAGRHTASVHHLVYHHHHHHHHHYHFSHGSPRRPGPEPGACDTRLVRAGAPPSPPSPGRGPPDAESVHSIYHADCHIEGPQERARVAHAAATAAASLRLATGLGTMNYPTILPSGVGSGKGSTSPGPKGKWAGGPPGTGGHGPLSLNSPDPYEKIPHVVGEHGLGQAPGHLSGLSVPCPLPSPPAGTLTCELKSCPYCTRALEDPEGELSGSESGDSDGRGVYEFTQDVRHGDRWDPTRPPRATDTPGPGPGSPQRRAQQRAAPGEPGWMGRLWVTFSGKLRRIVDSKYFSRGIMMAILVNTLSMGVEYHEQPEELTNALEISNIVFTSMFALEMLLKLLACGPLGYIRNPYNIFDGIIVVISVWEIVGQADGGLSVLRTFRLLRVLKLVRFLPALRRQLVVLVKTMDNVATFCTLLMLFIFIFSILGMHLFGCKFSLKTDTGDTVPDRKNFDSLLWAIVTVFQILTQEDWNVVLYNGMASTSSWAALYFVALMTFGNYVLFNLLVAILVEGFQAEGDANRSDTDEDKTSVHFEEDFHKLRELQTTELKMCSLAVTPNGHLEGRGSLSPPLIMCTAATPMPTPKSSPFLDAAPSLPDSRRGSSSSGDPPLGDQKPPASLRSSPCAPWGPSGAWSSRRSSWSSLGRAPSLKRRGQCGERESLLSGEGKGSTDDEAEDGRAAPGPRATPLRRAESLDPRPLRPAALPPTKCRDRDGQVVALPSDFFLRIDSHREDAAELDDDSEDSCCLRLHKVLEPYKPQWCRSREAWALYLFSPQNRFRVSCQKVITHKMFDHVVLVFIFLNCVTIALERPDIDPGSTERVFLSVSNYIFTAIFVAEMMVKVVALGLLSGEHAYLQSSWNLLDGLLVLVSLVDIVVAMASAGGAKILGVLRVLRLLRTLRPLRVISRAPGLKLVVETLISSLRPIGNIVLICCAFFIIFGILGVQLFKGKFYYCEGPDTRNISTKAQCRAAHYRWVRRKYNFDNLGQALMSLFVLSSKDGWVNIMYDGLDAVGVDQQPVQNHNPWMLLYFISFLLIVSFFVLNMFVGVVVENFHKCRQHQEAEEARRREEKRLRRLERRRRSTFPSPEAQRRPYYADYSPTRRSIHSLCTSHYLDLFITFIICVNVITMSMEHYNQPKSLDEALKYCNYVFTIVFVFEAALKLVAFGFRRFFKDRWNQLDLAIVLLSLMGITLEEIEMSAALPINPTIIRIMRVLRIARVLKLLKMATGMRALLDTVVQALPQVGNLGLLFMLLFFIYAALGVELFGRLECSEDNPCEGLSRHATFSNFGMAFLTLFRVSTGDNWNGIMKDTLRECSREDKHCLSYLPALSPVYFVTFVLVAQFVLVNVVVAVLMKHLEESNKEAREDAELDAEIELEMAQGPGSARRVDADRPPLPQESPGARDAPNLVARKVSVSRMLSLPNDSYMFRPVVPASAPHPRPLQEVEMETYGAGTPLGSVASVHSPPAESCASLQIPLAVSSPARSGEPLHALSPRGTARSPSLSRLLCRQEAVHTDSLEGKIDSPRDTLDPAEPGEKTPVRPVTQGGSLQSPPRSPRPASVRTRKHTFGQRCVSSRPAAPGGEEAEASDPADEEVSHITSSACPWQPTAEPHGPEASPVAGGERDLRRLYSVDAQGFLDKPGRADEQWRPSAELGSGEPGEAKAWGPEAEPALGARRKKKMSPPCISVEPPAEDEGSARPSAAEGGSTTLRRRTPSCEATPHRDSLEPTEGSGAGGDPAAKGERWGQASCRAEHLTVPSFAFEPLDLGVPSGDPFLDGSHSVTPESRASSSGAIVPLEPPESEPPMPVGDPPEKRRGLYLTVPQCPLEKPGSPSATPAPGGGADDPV
Neurotensin receptor type 1, sequence (P30989 whole entry): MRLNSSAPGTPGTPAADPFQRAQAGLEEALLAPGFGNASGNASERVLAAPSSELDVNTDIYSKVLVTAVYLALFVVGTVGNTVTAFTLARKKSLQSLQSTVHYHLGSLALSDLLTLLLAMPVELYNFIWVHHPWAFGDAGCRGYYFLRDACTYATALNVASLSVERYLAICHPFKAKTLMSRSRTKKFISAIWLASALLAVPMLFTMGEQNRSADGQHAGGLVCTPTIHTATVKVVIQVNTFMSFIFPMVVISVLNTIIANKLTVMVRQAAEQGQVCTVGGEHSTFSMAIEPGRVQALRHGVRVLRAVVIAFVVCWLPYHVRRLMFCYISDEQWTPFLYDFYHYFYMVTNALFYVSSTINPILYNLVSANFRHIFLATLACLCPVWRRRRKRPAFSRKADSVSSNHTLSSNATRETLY

Compound: CCc1ccccc1NC(=O)c1cc2sccc2n1C
- EC50 [1]: 12 µM (active)

Compound: COc1c2c(cc3c1OCO3)C13C=CC(OC)CC1N(C2)CC3O (stereo not given)
- AC50 (Cytochrome P450 3A4 [2]): 39.8 µM (inconclusive)

Compound: CCOC(=O)c1c(N2C(=O)C=CC2=O)sc(C)c1C
- IC50 (Beta-galactosidase): > 66.6 µM (inactive)
- EC50 [3]: 4.22 µM (active)

Compound: COc1cc(C)nc(N(Cc2ccccc2)S(=O)(=O)c2ccc(C)cc2)n1
- EC50 (Ion channel NompC): > 29.9 µM (not active)
- EC50 (Mucolipin-3): 6.93 µM (active)

Compound: Cc1ccc(S(=O)(=O)N(C)CC(=O)ONC(=N)c2cccc([N+](=O)[O-])c2)cc1
- EC50 (Ion channel NompC): > 29.9 µM (not active)
- EC50 (Mucolipin-3): 12.1 µM (not active)

Compound: CCOc1cc(/C=C2/C(=O)ON=C2C)ccc1OCc1ccccc1
- EC50 [4]: 23 µM (inactive)

Compound: Cc1cccc(OCC(O)Cn2c(=N)n(Cc3ccccc3)c3ccccc32)c1 (stereo not given)
- CC50 [5]: > 20 µM (active)
- IC50 [6]: 6.92 µM (active)
- CC50 [7]: 23.3 µM (active)

Compound: C=C1C(=O)OC2C1CC/C(C)=C/CCC1(C)OC21 (stereo not given)
- AC50 (Cytochrome P450 3A4 [2]): 25.1 µM (inconclusive)

Compound: Cc1cc(Br)ccc1OCCCCN1CCCCC1
- EC50 [8]: 750 nM (active)
- EC50 [9]: > 60 µM (not active)
- CC50 [5]: > 20 µM (active)
- CC50 [7]: > 40 µM (active)

Compound: C=CCOc1ccc2c(c1)c(S(=O)(=O)c1ccc(C)cc1)cn2COC
- EC50 (Ion channel NompC): > 29.9 µM (not active)
- EC50 (Mucolipin-3): 1.16 µM (active)

Compound: CNC(=O)[C@H](C)/C=C(\c1cccnc1)C(NC(=O)OCc1ccccc1)c1ccc(C(=O)OC)cc1 (stereo not given in full)
- AC50 (Cytochrome P450 3A4 [2]): 20 µM (inconclusive)

Compound: O=[N+]([O-])c1cc(Cl)cc(/C=N/Nc2nc3ccccc3s2)c1O
- EC50 (Streptococcus): 7.64 µM (active)
- IC50 (cells [10]): 2.82 µM (active)
- CC50 [5]: 16.4 µM (active)
- EC50 [11]: 2.17 µM (active)
- CC50 [7]: 10 µM (active)
- EC50 (Streptokinase A): > 150 µM (not active)
- CC50 [12]: 10.4 µM (active)

Compound: COc1cc(C(=O)N/N=C/c2cc([N+](=O)[O-])cs2)cc(OC)c1OC
- IC50 (cells [10]): 0.87 µM (active)
- IC50 [13]: > 80 µM (inactive)
- CC50 [5]: > 20 µM (active)
- CC50 [7]: 0.724 µM (active)
- CC50 [12]: 5.03 µM (active)

Compound: CCN(CC)CCN(C(=O)CN1C(=O)c2ccccc2C1=O)c1nc2cc3c(cc2s1)OCO3
- EC50 [8]: < 100 nM (active)
- EC50 [9]: > 60 µM (not active)
- EC50 [14]: > 53 µM (inactive)
- EC50 (cells [15]): 349 nM (active)
- IC50 [16]: > 47.1 µM (inactive)

Compound: C[C@H](NC(=O)c1[nH]cnc1C(=O)NCc1ccc(CNC(=O)OC(C)(C)C)cc1)C(=O)OCc1ccccc1
- EC50 [4]: 19.4 µM (active)

Compound: CC(C)c1ccc(C2=C(O)C(=O)c3ccccc3C2=O)cc1
- EC50 [17]: 1.11 µM (active)
- EC50 [18]: 67.1 µM (active)
- CC50 [12]: 16.5 µM (active)

Compound: C=CCN(CC=C)CC(O)Cn1c2ccccc2c2ccccc21 (stereo not given)
- AC50 (Cytochrome P450 3A4 [19]): 28.2 µM (inconclusive)
- AC50 (INS1): > 120 µM (inactive)
- EC50 [1]: 9.06 µM (active)

Compound: Cc1ccc2c(c1)C(O)(c1c(C)[nH]c3ccccc13)C(=O)N2 (stereo not given)
- EC50 [1]: 8.82 µM (active)
